US20070244080A1, “Method for Treatment of Inflammatory Disorders Using Triptolide Compounds” (priority 2004, published 2007)

How the values were obtained:
[1] = tested on: IL-2 production in Jurkat cells; details: cited from earlier work
[2] = tested on: human T cell lymphoma (Jurkat) cells; details: relative to native triptolide; cited from earlier work
TNF-α = assay: Suppression of cytokine production, PHA-induced PBMC, ELISA; format: cell-based, human; details: 24 hr, single donor
Description: (§1) Triptolide suppresses in vitro production of proinflammatory cytokines such as IFN-γ, TNF-α, IL-1β and IL-6, as shown in Table 1. To obtain the data, Jurkat cells were stimulated for 8 hr by PMA and ionomycin. Human peripheral blood mononuclear cells (PBMC) from a single donor were incubated for 24 hr with PHA. At the end of the culture period, each supernatant was harvested, and the cytokine content was assayed by ELISA.

IFN-γ = assay: as above; format: cell-based, human; details: 24 hr, single donor
Description: as §1

IL-2 [3] = assay: as above; format: cell-based, human; details: 24 hr, single donor
Description: as §1

IL-6 = assay: as above; format: cell-based, human; details: 24 hr, single donor
Description: as §1

IL-1β = assay: as above; format: cell-based, human; details: 24 hr, single donor
Description: as §1

[4] = tested on: cytokine genes in activated Jurkat cells; details: cited from earlier work
IL-2 [5] = assay: Suppression of cytokine production, PMA/ionomycin-induced Jurkat cells, ELISA; format: cell-based, human; details: 8 hr
Description: as §1

IL-8 = details: bronchial epithelial cells; cited from earlier work
[6] = Conversion of triptolide prodrug to triptolide in blood serum (TLC); format: in vitro ADME; details: 37° C.
Description: A solution of triptolide succinate in DMSO (25 mg/ml, 0.1 ml) was mixed with 0.5 ml of rat serum. The mixture was incubated at 37° C. Aliquots of the mixture were taken at 1, 3, 5, 15, 45 minutes and 18 hours and analyzed by thin layer chromatography (TLC). The TLC plates were developed in 1:5 CH2Cl2/Et2O. After development, the plates were treated with iodine vapor and examined under a UV lamp. Triptolide and triptolide succinate were used as reference compounds (Rf=0.60 and 0.45, respectively). […] After 15 minutes, the triptolide succinate spot had disappeared (Rf=0.45), and a new spot corresponding to triptolide had appeared (Rf=0.60).

[7] = in vivo; cited from earlier work
[8] = Phase I clinical trial, tolerability; format: in vivo, human; details: 0.675 μg/m^2 by i.v. infusion, weekly intervals
Description: In accordance with the invention, administration of a triptolide compound is expected to inhibit cytokine production, particularly TGF-β production, in a patient suffering from obliterative airway disease, renal fibrosis, diabetic nephropathy, or liver fibrosis, thereby reducing the symptoms of the disease. A range of doses is practical for this treatment. […] This dose calculates to about 20 μg/kg. Treatment in this clinical study is administered at weekly intervals.

## CC(C)[C@]12O[C@H]1[C@@H]1O[C@]13[C@]1(O[C@H]1C[C@H]1C4=C(CC[C@@]13C)C(=O)OC4)[C@H]2F [PG763, 14-deoxy-14α-fluoro triptolide]
[1]; relative to native triptolide
  IL-2 inhibition activity compared with native triptolide: nearly equivalent
[2]
  Cytotoxicity compared with native triptolide: nearly equivalent

## CC(C)[C@]12O[C@H]1[C@@H]1O[C@]13[C@]1(O[C@H]1C[C@H]1c4c(C(=O)c5ccccc5)oc(OC(=O)c5ccccc5)c4CC[C@@]13C)[C@@H]2O [PG796, 18-deoxo-19-dehydro-18-benzoyloxy-19-benzoyl triptolide]
[1]; relative to the prodrug triptolide 14-succinate
  IL-2 inhibition activity compared with triptolide 14-succinate: higher level of activity

## triptolide
TNF-α
  IC50, suppression of TNF-α production: 0.35 ng/mL
IFN-γ
  IC50, suppression of IFN-γ production: 0.52 ng/mL
IL-2 [3]
  IC50, suppression of IL-2 production: 0.38 ng/mL
IL-6
  IC50, suppression of IL-6 production: 1.5 ng/mL
IL-1β
  IC50, suppression of IL-1β production: 0.45 ng/mL
[4]
  Expression of cytokine genes (IL-2, IL-3, IL-6, IL-8, IL-13, TNF-α, TGF-β, MIP-1α, MIP-1β, GM-CSF, RANTES): inhibits the expression of several cytokine genes
IL-2 [5]
  IC50, suppression of IL-2 production: 1.3 ng/mL
IL-8
  IL-8 mRNA and protein expression: suppresses IL-8 expression

## triptolide 14-succinate [PG490-88]
[1]; after incubation in plasma
  Suppression of IL-2 production: in vitro activity in suppression of IL-2 production
[6]; after 3 minutes
  Species detected by TLC after incubation in rat serum: only triptolide succinate was detected
[6]; after 15 minutes
  Species detected by TLC after incubation in rat serum: disappeared
[7]
  Efficacy in animal models of immunosuppression: efficacy in several animal models of immunosuppression

## triptolide succinate sodium salt [PG490-88Na]
[8]
  Tolerability in phase I clinical trial: well tolerated with no drug-related toxicity
